Experimental data from US9326516B2, “Molecules having certain pesticidal utilities, and intermediates, compositions, and processes related thereto” (Dow AgroSciences LLC, priority 2014, dated 2016).

How the values were obtained:
Format in all cases: in vivo
[1] = tested on: Yellow Fever Mosquito (Aedes aegypti, AEDSAE); conditions: about 1 day-old larvae, master plate 4000 ppm in DMSO diluted, room temperature, scored after 3 days on mortality
Description: Certain molecules disclosed in this document were tested against YFM using procedures described in the following paragraph. In the reporting of the results, the “YFM Rating Table” was used (See Table Section).
Master plates containing 400 μg of a molecule dissolved in 100 μL of dimethyl sulfoxide (DMSO) (equivalent to a 4000 ppm solution) are used. A master plate of assembled molecules contains 15 μL per well. To this plate, 135 μL of a 90:10 water:acetone mixture is added to each well. A robot (Biomek® NXP Laboratory Automation Workstation) is programmed to dispense 15 μL aspirations from the master plate into an empty 96-well shallow plate (“daughter” plate). There are 6 reps (“daughter” plates) created per master. The created daughter plates are then immediately infested with YFM larvae.
The day before plates are to be treated, mosquito eggs are placed in Millipore water containing liver powder to begin hatching (4 g. into 400 mL). After the daughter plates are created using the robot, they are infested with 220 μL of the liver powder/larval mosquito mixture (about 1 day-old larvae). After plates are infested with mosquito larvae, a non-evaporative lid is used to cover the plate to reduce drying. Plates are held at room temperature for 3 days prior to grading. After 3 days, each well is observed and scored based on mortality.

[2] = tested on: Green Peach Aphid (Myzus persicae, MYZUPE); assay: Bioassay on Green Peach Aphid (GPA), foliar spray on cabbage seedlings; conditions: 72 h, 200 ppm spray on infested cabbage seedlings, graded after three days, Abbott corrected % control, read-out: GPA % Control (or Mortality) rating
Description: Certain molecules disclosed in this document were tested against GPA using procedures described in the following example. In the reporting of the results, the “GPA Rating Table” was used (See Table Section).
Cabbage seedlings grown in 3-inch pots, with 2-3 small (3-5 cm) true leaves, were used as test substrate. The seedlings were infested with 20-50 GPA (wingless adult and nymph stages) one day prior to chemical application. Four pots with individual seedlings were used for each treatment. Test compounds (2 mg) were dissolved in 2 mL of acetone/methanol (1:1) solvent, forming stock solutions of 1000 ppm test compound. The stock solutions were diluted 5× with 0.025% Tween 20 in water to obtain the solution at 200 ppm test compound. A hand-held aspirator-type sprayer was used for spraying a solution to both sides of […] leaves until runoff. Reference plants (solvent check) were sprayed with the diluent only containing 20% by volume of acetone/methanol (1:1) solvent. Treated plants were held in a holding room for three days at approximately 25° C. and ambient relative humidity (RH) prior to grading. Evaluation was conducted by counting the number of live aphids per plant under a microscope. Percent Control was measured by using Abbott's correction formula (W. S. Abbott, “A Method of Computing the Effectiveness of an Insecticide” J. Econ. Entomol. 18 (1925), pp. 265-267) as follows. Corrected % Control=100*(X−Y)/X where X=No. of live aphids on solvent check plants and Y=No. of live aphids on treated plants

[3] = tested on: Beet Armyworm (Spodoptera exigua, LAPHEG); assay: Bioassay on Beet Armyworm (BAW), 128-well diet tray assay; conditions: 168 h, 50 μg/cm^2 on artificial diet, second instar BAW larvae, 25° C., five to seven days, average of eight wells, read-out: BAW % Control (or Mortality) rating
Description: (§1) Certain molecules disclosed in this document were tested against BAW and CEW using procedures described in the following examples. In the reporting of the results, the “BAW & CL Rating Table” was used (See Table Section).
Bioassays on BAW were conducted using a 128-well diet tray assay. one to five second instar BAW larvae were placed in each well (3 mL) of the diet tray that had been previously filled with 1 mL of artificial diet to which 50 μg/cm^2 of the test compound (dissolved in 50 μL of 90:10 acetone-water mixture) had been applied (to each of eight wells) and then allowed to dry. Trays were covered with a clear self-adhesive cover and held at 25° C., 14:10 light-dark for five to seven days. Percent mortality was recorded for the larvae in each well; activity in the eight wells was then averaged. The results are indicated in the table entitled “Table ABC: Biological Results” (See Table Section).

[4] = tested on: Cabbage Looper (Trichoplusia ni, TRIPNI); assay: Bioassay on Cabbage Looper (CL), 128-well diet tray assay; conditions: 168 h, 50 μg/cm^2 on artificial diet, second instar CL larvae, 25° C., five to seven days, average of eight wells, read-out: CL % Control (or Mortality) rating
Description: as §1
Bioassays on CL were conducted using a 128-well diet tray assay, one to five second instar CL larvae were placed in each well (3 mL) of the diet tray that had been previously filled with 1 mL of artificial diet to which 50 μg/cm^2 of the test compound (dissolved in 50 μL of 90:10 acetone-water mixture) had been applied (to each of eight wells) and then allowed to dry. Trays were covered with a clear self-adhesive cover and held at 25° C., 14:10 light-dark for five to seven days. Percent mortality was recorded for the larvae in each well; activity in the eight wells was then averaged. The results are indicated in the table entitled “Table ABC: Biological Results” (See Table Section).

FC(F)(F)Oc1ccc(-n2cnc(-c3ccc(NC4=N[C@H](c5ccccc5)CO4)cc3)n2)cc1 [Compound F1, (R)-4-Phenyl-N-(4-(1-(4-(trifluoromethoxy)phenyl)-1H-1,2,4-triazol-3-yl)phenyl)-4,5-dihydrooxazol-2-amine]
YFM % Control (or Mortality) rating [1]: B (More than 0-Less than 80) | mortality at 200 ppm [2]: 80 to 100% | mortality at 50 µg/cm2 [3]: 50 to 100% | mortality at 50 µg/cm2 [4]: 50 to 100%

FC(F)(F)Oc1ccc(-n2cnc(-c3ccc(NC4=NC(c5ccc(Br)cc5)CS4)cc3)n2)cc1 (stereo not shown) [Compound F26, 4-(4-Bromophenyl)-N-(4-(1-(4-(trifluoromethoxy)phenyl)-1H-1,2,4-triazol-3-yl)phenyl)-4,5-dihydrothiazol-2-amine]
mortality at 200 ppm [2]: 0% | mortality at 50 µg/cm2 [3]: 0% | mortality at 50 µg/cm2 [4]: 0 to 50%

FC(F)(F)Oc1ccc(-n2cnc(-c3ccc(NC4=NC(c5ccc(C(F)(F)F)cc5)CS4)cc3)n2)cc1 (stereo not shown) [Compound F27, N-(4-(1-(4-(Trifluoromethoxy)phenyl)-1H-1,2,4-triazol-3-yl)phenyl)-4-(4-(trifluoromethyl)phenyl)-4,5-dihydrothiazol-2-amine]
mortality at 200 ppm [2]: 0% | mortality at 50 µg/cm2 [3]: 0% | mortality at 50 µg/cm2 [4]: 50 to 100%

FC(F)(F)Oc1ccc(C2CSC(Nc3ccc(-c4ncn(-c5ccc(OC(F)(F)F)cc5)n4)cc3)=N2)cc1 (stereo not shown) [Compound F28, 4-(4-(Trifluoromethoxy)phenyl)-N-(4-(1-(4-(trifluoromethoxy)phenyl)-1H-1,2,4-triazol-3-yl)phenyl)-4,5-dihydrothiazol-2-amine]
mortality at 200 ppm [2]: 0% | mortality at 50 µg/cm2 [3]: 0 to 50% | mortality at 50 µg/cm2 [4]: 0%

FC(F)(F)Oc1ccc(-n2cnc(-c3ccc(NC4=NC(c5cccc(Cl)c5)CS4)cc3)n2)cc1 (stereo not shown) [Compound F29, 4-(3-Chlorophenyl)-N-(4-(1-(4-(trifluoromethoxy)phenyl)-1H-1,2,4-triazol-3-yl)phenyl)-4,5-dihydrothiazol-2-amine]
mortality at 200 ppm [2]: 0% | mortality at 50 µg/cm2 [3]: 50 to 100% | mortality at 50 µg/cm2 [4]: 50 to 100%

FC(F)(F)Oc1ccc(-n2cnc(-c3ccc(NC4=NC(c5ccccc5Cl)CS4)cc3)n2)cc1 (stereo not shown) [Compound F30, 4-(2-Chlorophenyl)-N-(4-(1-(4-(trifluoromethoxy)phenyl)-1H-1,2,4-triazol-3-yl)phenyl)-4,5-dihydrothiazol-2-amine]
mortality at 200 ppm [2]: 0% | mortality at 50 µg/cm2 [3]: 50 to 100% | mortality at 50 µg/cm2 [4]: 50 to 100%

Cc1cc(C2CSC(Nc3ccc(-c4ncn(-c5ccc(OC(F)(F)F)cc5)n4)cc3)=N2)ccc1Cl (stereo not shown) [Compound F31, 4-(4-Chloro-3-methylphenyl)-N-(4-(1-(4-(trifluoromethoxy)phenyl)-1H-1,2,4-triazol-3-yl)phenyl)-4,5-dihydrothiazol-2-amine]
mortality at 200 ppm [2]: 0% | mortality at 50 µg/cm2 [3]: 50 to 100% | mortality at 50 µg/cm2 [4]: 50 to 100%

COc1ccc(C2CSC(Nc3ccc(-c4ncn(-c5ccc(C(F)(F)F)cc5)n4)cc3)=N2)cc1 (stereo not shown) [Compound F32, 4-(4-Methoxyphenyl)-N-(4-(1-(4-(trifluoromethyl)phenyl)-1H-1,2,4-triazol-3-yl)phenyl)-4,5-dihydrothiazol-2-amine]
mortality at 200 ppm [2]: 0% | mortality at 50 µg/cm2 [3]: 0% | mortality at 50 µg/cm2 [4]: 0%

Cc1ccc(C2CSC(Nc3ccc(-c4ncn(-c5ccc(C(F)(F)F)cc5)n4)cc3)=N2)cc1 (stereo not shown) [Compound F33, 4-(p-Tolyl)-N-(4-(1-(4-(trifluoromethyl)phenyl)-1H-1,2,4-triazol-3-yl)phenyl)-4,5-dihydrothiazol-2-amine]
mortality at 200 ppm [2]: 0 to 80% | mortality at 50 µg/cm2 [3]: 0% | mortality at 50 µg/cm2 [4]: 0%

FC(F)(F)c1ccc(-n2cnc(-c3ccc(NC4=NC(c5ccccc5)CS4)cc3)n2)cc1 (stereo not shown) [Compound F34, 4-Phenyl-N-(4-(1-(4-(trifluoromethyl)phenyl)-1H-1,2,4-triazol-3-yl)phenyl)-4,5-dihydrothiazol-2-amine]
mortality at 200 ppm [2]: 0% | mortality at 50 µg/cm2 [3]: 50 to 100% | mortality at 50 µg/cm2 [4]: 50 to 100%

Fc1ccc(C2CSC(Nc3ccc(-c4ncn(-c5ccc(C(F)(F)F)cc5)n4)cc3)=N2)cc1 (stereo not shown) [Compound F35, 4-(4-Fluorophenyl)-N-(4-(1-(4-(trifluoromethyl)phenyl)-1H-1,2,4-triazol-3-yl)phenyl)-4,5-dihydrothiazol-2-amine]
mortality at 200 ppm [2]: 0% | mortality at 50 µg/cm2 [3]: 0% | mortality at 50 µg/cm2 [4]: 50 to 100%

FC(F)(F)c1ccc(-n2cnc(-c3ccc(NC4=NC(c5ccc(Cl)cc5)CS4)cc3)n2)cc1 (stereo not shown) [Compound F36, 4-(4-Chlorophenyl)-N-(4-(1-(4-(trifluoromethyl)phenyl)-1H-1,2,4-triazol-3-yl)phenyl)-4,5-dihydrothiazol-2-amine]
mortality at 200 ppm [2]: 0% | mortality at 50 µg/cm2 [3]: 0% | mortality at 50 µg/cm2 [4]: 50 to 100%

FC(F)(F)c1ccc(-n2cnc(-c3ccc(NC4=NC(c5ccc(Br)cc5)CS4)cc3)n2)cc1 (stereo not shown) [Compound F37]
mortality at 200 ppm [2]: 0% | mortality at 50 µg/cm2 [3]: 0% | mortality at 50 µg/cm2 [4]: 0%

FC(F)(F)c1ccc(C2CSC(Nc3ccc(-c4ncn(-c5ccc(C(F)(F)F)cc5)n4)cc3)=N2)cc1 (stereo not shown) [Compound F38, 4-(4-(Trifluoromethyl)phenyl)-N-(4-(1-(4-(trifluoromethyl)phenyl)-1H-1,2,4-triazol-3-yl)phenyl)-4,5-dihydrothiazol-2-amine]
mortality at 200 ppm [2]: 0% | mortality at 50 µg/cm2 [3]: 0 to 50% | mortality at 50 µg/cm2 [4]: 50 to 100%

FC(F)(F)Oc1ccc(C2CSC(Nc3ccc(-c4ncn(-c5ccc(C(F)(F)F)cc5)n4)cc3)=N2)cc1 (stereo not shown) [Compound F39, 4-(4-(Trifluoromethoxy)phenyl)-N-(4-(1-(4-(trifluoromethyl)phenyl)-1H-1,2,4-triazol-3-yl)phenyl)-4,5-dihydrothiazol-2-amine]
mortality at 200 ppm [2]: 0% | mortality at 50 µg/cm2 [3]: 0% | mortality at 50 µg/cm2 [4]: 0%

FC(F)(F)c1ccc(-n2cnc(-c3ccc(NC4=NC(c5cccc(Cl)c5)CS4)cc3)n2)cc1 (stereo not shown) [Compound F40, 4-(3-Chlorophenyl)-N-(4-(1-(4-(trifluoromethyl)phenyl)-1H-1,2,4-triazol-3-yl)phenyl)-4,5-dihydrothiazol-2-amine]
mortality at 200 ppm [2]: 0 to 80% | mortality at 50 µg/cm2 [3]: 50 to 100% | mortality at 50 µg/cm2 [4]: 50 to 100%

FC(F)(F)c1ccc(-n2cnc(-c3ccc(NC4=NC(c5ccccc5Cl)CS4)cc3)n2)cc1 (stereo not shown) [Compound F41, 4-(2-Chlorophenyl)-N-(4-(1-(4-(trifluoromethyl)phenyl)-1H-1,2,4-triazol-3-yl)phenyl)-4,5-dihydrothiazol-2-amine]
mortality at 200 ppm [2]: 0% | mortality at 50 µg/cm2 [3]: 50 to 100% | mortality at 50 µg/cm2 [4]: 50 to 100%

Cc1cc(C2CSC(Nc3ccc(-c4ncn(-c5ccc(C(F)(F)F)cc5)n4)cc3)=N2)ccc1Cl (stereo not shown) [Compound F42, 4-(4-Chloro-3-methylphenyl)-N-(4-(1-(4-(trifluoromethyl)phenyl)-1H-1,2,4-triazol-3-yl)phenyl)-4,5-dihydrothiazol-2-amine]
mortality at 200 ppm [2]: 0% | mortality at 50 µg/cm2 [3]: 0% | mortality at 50 µg/cm2 [4]: 0%
